Source: patent publication US10066238B2, “Methods for producing antibodies” (priority 2013, dated 2018)
Like-named read-outs stand apart in the source and are kept apart here.

Assays:
[1] = system: Q769.h5 pseudovirus (clade A); assay: HIV-1 neutralization assay (Env-pseudotyped virus, Luc reporter); assay type: cell-based
[2] = system: Du156 pseudovirus (clade C); assay: as above; assay type: cell-based
[3] = system: SS1196.1 pseudovirus (clade B); assay: as above; assay type: cell-based
[4] = system: SF162 pseudovirus (clade B); assay: as above; assay type: cell-based
[5] = molecular target: recombinant hemagglutinin (HA) (A/New Caledonia/20/99); assay: SPR analysis of captured CR6261; assay type: binding, influenza H1N1; settings: HA as analyte, bivalent analyte kinetics fit, read-out: equilibrium dissociation constant, KD
[6] = molecular target: FcγRI (Homo sapiens, UniProt P12314); assay: FcγRI binding in ELISA and in flow cytometry; settings: data not shown
[7] = system: HIV-1 BaL; settings: topical gel formulation; CCR5-using HIV-1 BaL; Veselinovic, et al.; cited from earlier work
[8] = system: Q769.h5 pseudovirus (clade A); settings: reported by Wu et al. (16); cited from earlier work
[9] = system: Du156 pseudovirus (clade C); settings: reported by Wu et al. (16); cited from earlier work
[10] = system: SF162 pseudovirus (clade B); settings: reported by Wu et al. (16); cited from earlier work
[11] = read-out: IC50 in a respective combination with VRC01p, TZM-b1 cells, GRFT, MVC concentration in combination, mean ± SEM
[12] = read-out: IC50 when used individually, TZM-b1 cells, GRFT, MVC, mean ± SEM
[13] = TZM-b1 cells, TFV concentration in combination, mean ± SEM, read-out: IC50 in a respective combination with VRC01p
[14] = TZM-b1 cells, TFV, mean ± SEM, read-out: IC50 when used individually
[15] = TZM-b1 cells, GRFT, MVC concentration in combination, mean ± SEM, read-out: IC50 in a respective combination with VRC01p
[16] = TZM-b1 cells, GRFT, MVC, mean ± SEM, read-out: IC50 when used individually

Chain of FcγRI (P12314 16-374, species assumed): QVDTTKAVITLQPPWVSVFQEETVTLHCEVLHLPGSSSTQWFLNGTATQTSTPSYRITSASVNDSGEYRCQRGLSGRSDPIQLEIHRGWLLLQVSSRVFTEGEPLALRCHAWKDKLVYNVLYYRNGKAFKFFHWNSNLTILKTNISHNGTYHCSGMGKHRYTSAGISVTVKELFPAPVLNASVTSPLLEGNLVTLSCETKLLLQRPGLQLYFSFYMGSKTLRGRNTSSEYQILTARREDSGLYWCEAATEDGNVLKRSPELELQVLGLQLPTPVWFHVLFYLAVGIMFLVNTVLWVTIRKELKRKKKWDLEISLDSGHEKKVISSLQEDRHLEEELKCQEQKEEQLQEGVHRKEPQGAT

What does the source list for maraviroc [MVC]?
dose reduction index (DRI) in a respective combination with VRC01p ([1]; mean ± SEM): 4.40 ± 0.71; IC50 [1, 11]: 5.27 ± 1.12 nM; IC50 [1, 12]: 29.6 ± 7.75 nM; dose reduction index (DRI) in a respective combination with VRC01p ([2]; mean ± SEM): 5.93 ± 0.96; IC50 [2, 11]: 32.2 ± 11.5 nM; IC50 [2, 12]: 199 ± 40.4 nM; dose reduction index (DRI) in a respective combination with VRC01p ([3]; mean ± SEM): 5.06 ± 0.39; IC50 [3, 11]: 15.6 ± 8.87 nM; IC50 [3, 12]: 96.4 ± 28.5 nM; dose reduction index (DRI) in a respective combination with VRC01p ([4]; mean ± SEM): 4.21 ± 0.25; IC50 [4, 11]: 18.3 ± 7.9 nM; IC50 [4, 12]: 54.9 ± 29.3 nM

For `C[C@H](Cn1cnc2c(N)ncnc21)OCP(=O)(O)O` [TFV, tenofovir], which IC50 [1, 13] is on record?
Its IC50 is 2090 ± 390 nM.

And the IC50 [1, 14]?
The IC50 was 21200 ± 3530 nM.

And the “dose reduction index (DRI) in a respective combination with VRC01p” value (“dose reduction index (DRI)” below) ([1]; mean ± SEM)?
Its value is 8.40 ± 1.41.

And the IC50 [2, 13]?
The IC50 was 60 nM.

And the IC50 [2, 14]?
Its IC50 is 7140 ± 1910 nM.

What about the “dose reduction index (DRI)” value ([2]; mean ± SEM) of the same compound?
Its value is 3.01 ± 0.65.

And the IC50 [3, 13]?
The IC50 was 1920 ± 340 nM.

What about the IC50 [3, 14] of the same compound?
The IC50 was 7650 ± 2390 nM.

What about the “dose reduction index (DRI)” value ([3]; mean ± SEM) of the same compound?
The value was 3.76 ± 0.68.

What about the IC50 [4, 13] of the same compound?
Its IC50 is 880 ± 400 nM.

What about the IC50 [4, 14] of the same compound?
The IC50 was 2700 ± 1020 nM.

And the “dose reduction index (DRI)” value ([4]; mean ± SEM)?
The value was 2.10 ± 0.34.

For “CR6261: anti-influenza bnMAb CR6261 IgG1 (PDB ID: 3GBM) expressed in N. benthamiana”, which Kd [5] is on record?
The Kd was 0.055 ± 0.0036 nM.

With “VRC01p: Nicotiana plant-expressed anti-HIV-1 bnMAb VRC01 IgG1 from the L-(KP6pp)-H construct” as the compound, how does the “binding to FcγRI compared with a human IgG1 isotype control” value [6] read?
Its value is “nearly an order of magnitude less”.

Which results are given for griffithsin [GRFT]?
IC50 [1, 15]: 0.79 ± 0.19 nM; IC50 [1, 16]: 12.4 ± 2.88 nM; dose reduction index (DRI) in a respective combination with VRC01p ([1]; mean ± SEM): 11.3 ± 2.95; IC50 [2, 15]: 0.003 ± 0.0004 nM; IC50 [2, 16]: 0.02 ± 0.001 nM; dose reduction index (DRI) in a respective combination with VRC01p ([2]; mean ± SEM): 6.29 ± 0.66; IC50 [3, 15]: 0.01 ± 0.001 nM; IC50 [3, 16]: 0.04 ± 0.01 nM; dose reduction index (DRI) in a respective combination with VRC01p ([3]; mean ± SEM): 2.98 ± 0.72; IC50 [4, 15]: 0.1 ± 0.03 nM; IC50 [4, 16]: 0.59 ± 0.34 nM; dose reduction index (DRI) in a respective combination with VRC01p ([4]; mean ± SEM): 3.19 ± 1.16

With “VRC01: CD4-binding site (CD4bs)-specific bnMAb isolated from a slowly progressing HIV-1 infected donor” as the compound, how does the “protection against vaginal challenge” value [7] read?
The value was “protected”.

With “VRC01HEK: HEK293F cell-produced bnMAb VRC01” as the compound, how does the “VRC01HEK IC50” value [8] read?
Its value is 0.084 µg/mL.

What about the “VRC01HEK IC50” value [9] of the same compound?
The value was 0.089 µg/mL.

What about the “VRC01HEK IC50” value [10] of the same compound?
Its value is 0.139 µg/mL.
